Like-named read-outs stand apart in the source and are kept apart here. Positions of bridges follow the written chain, without caps; N, C: chain ends. Residues, ends and D or L forms follow the SMILES beside them.
Assays:
Stability in plasma = format: in vitro ADME; details: Rat Plasma; substrate initial conc. 1 µM; 37°C, up to 45 min
Method: (§1) Incubations with preparations of microsomes and cytosol and with plasma under conditions as described below are suitable to investigate the metabolic stability of test compounds (e.g. oxidative metabolism reactions and hydrolysis by esterases). The metabolic stability of the test compounds of examples 1 and 2 is investigated in liver microsomes and cytosol of humans, dogs and rats and in plasma of humans and rats.
Incubations of test substrates (final concentration: 1 µM) are performed with human and rat plasma (heparin) containing 0.1 M Tris buffer pH 7.4. The reaction is initiated by addition of the test compound at 37°C for up to 45 min and terminated by addition of acetonitrile. After vortex mixing and centrifugation the supernatants are analyzed.
(§2) The samples are analyzed by on-line solid phase extraction and reversed phase HPLC coupled to electro-spray ionization tandem mass spectrometry. The measurements are performed on a triple quad mass spectrometer Quattro II (Micromass, Manchester, UK). The instrument operates at nominal mass resolution in SIR-mode. The analytes are quantified by detection of their quasimolecular ions [M+2H]^2+ m/z 1019 (Example 1) and m/z 1026 (Example 2).

[1] = Metabolic stability with liver microsomes; format: in vitro ADME; details: substrate initial conc. 1 µM, 37°C, up to 45 min
Method: as §1
(§3) Incubations of test compounds (final concentration: 1 µM) are performed with liver microsomes and cytosol (0.5 mg protein/ml) in Tris buffer (Tris-(hydroxymethyl)-aminomethane) pH 7.4 (0.1 M) containing magnesium chloride (5 mM) at 37°C for up to 45 min in a total volume of 100 µl. The reaction is initiated by addition of β-nicotinamide adenine dinucleotide phosphate, reduced form (NADPH, 1 mM) and terminated by addition of acetonitrile. After vortex mixing and centrifugation the supernatants are analyzed.
as §2

human glucagon receptor = target: T1, human glucagon receptor (Homo sapiens, UniProt P47871); assay: Glucagon binding assay (competition binding with 125I-glucagon, BHK-21 cell membranes)
T1 construct: expressed in transfected cells; host or cells: BHK-21(C-13) baby hamster kidney cells, stably transfected (pcDNA3.1 construct, G-418 selection); plasma membranes
Method: Binding of peptides to the glucagon receptor was assayed in a competition binding-assay using a membrane fraction containing the cloned human glucagon receptor and radiolabeled glucagon. The cDNA coding for the human glucagon receptor was cloned into expression vector pcDNA3.1 (Invitrogene). Baby hamster kidney cells (BHK-21(C-13) cells (ATCC)) were transfected with the expression construct for the human glucagon receptor and a stably transfected cell clone was isolated after selection with G-418 (Gibco). Plasma membranes containing the human glucagon receptor were prepared from stably transfected BHK-21 cells. Cells were grown to confluence, washed and detached with ice cold PBS buffer (Gibco), containing 0.05% EDTA and collected in PBS buffer. The cells were collected by centrifugation and suspended in 20 volumes of ice-cold tris buffer (10 mM tris/HCl, pH7.2; 0.01 mM PMSF (Phenylmethylsulfonyl fluoride)) and incubated for 90 minutes. […] The protein-bound radioactivity is separated from unbound ligand by filtration and washing on a Multiscreen-[…] (Millipore) using GC/B filters (Packard) and measured after addition of 20 μl Microscint 20 in a topcount scintillation counter (Packard). The non-specific binding is defined as radioactivity bound in the presence of 1 μM glucagon (Wherl GmbH). Accordingly an IC50 value can be calculated from the results obtained in the above test method. […]

Solubility in buffer = format: physicochemical
Excerpt: and the following solubilities:

[2] = Metabolic stability with liver cytosol; format: in vitro ADME; details: substrate initial conc. 1 µM, 37°C, up to 45 min
Method: as §1, §3, §2

T1 sequence (P47871 26-477): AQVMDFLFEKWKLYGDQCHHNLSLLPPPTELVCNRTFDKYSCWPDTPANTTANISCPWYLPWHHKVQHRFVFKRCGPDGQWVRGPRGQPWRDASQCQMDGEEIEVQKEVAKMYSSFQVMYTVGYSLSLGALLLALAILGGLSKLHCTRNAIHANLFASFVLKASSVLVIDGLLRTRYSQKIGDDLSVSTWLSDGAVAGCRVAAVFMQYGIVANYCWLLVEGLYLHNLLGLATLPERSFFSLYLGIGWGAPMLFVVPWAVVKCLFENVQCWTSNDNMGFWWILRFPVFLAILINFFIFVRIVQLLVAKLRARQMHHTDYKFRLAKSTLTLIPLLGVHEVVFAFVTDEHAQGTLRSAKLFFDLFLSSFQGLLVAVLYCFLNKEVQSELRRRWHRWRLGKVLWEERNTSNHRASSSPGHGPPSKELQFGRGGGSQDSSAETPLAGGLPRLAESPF

SMILES | Half-lives, (t½ [min]) (Stability in plasma) | Half-lives, (t½ [min]) ([1]; Dog Micros) | Half-lives, (t½ [min]) ([1]; Human Micros) | Half-lives, (t½ [min]) ([1]; Rat Micros) | IC50 (human glucagon receptor; competition with 125I-glucagon, membranes with cloned human glucagon receptor, read-out: IC50) [nM] | solubilities (Solubility in buffer; Buffer pH 3.0) [mg/mL] | solubilities (Solubility in buffer; Buffer pH 7.4) [mg/mL] | solubilities (Solubility in buffer; Buffer pH 10.0) [mg/mL] | Half-lives, (t½ [min]) ([2]; Dog Cytosol) | Half-lives, (t½ [min]) ([2]; Human Cytosol) | Half-lives, (t½ [min]) ([2]; Rat Cytosol) | IC50 (human glucagon receptor) [nM]
CC[C@H](C)[C@@H]1NC(=O)[C@@H]2CC(=O)NCC(=O)N[C@@H](CC(C)C)C(=O)N3CCC[C@H]3C(=O)N[C@@H](Cc3c[nH]c4ccccc34)C(=O)NCC(=O)N[C@@H](CSSC[C@@H](C(=O)O)NC(=O)[C@H](C)NC(=O)[C@H](Cc3c[nH]c4ccccc34)NC(=O)[C@@H]3CCCN3C(=O)[C@H]([C@@H](C)O)NC(=O)[C@H](CC(N)=O)NC(=O)[C@H](Cc3c[nH]c4ccccc34)NC(=O)CNC(=O)[C@@H]3CCCN3C1=O)C(=O)N1CCC[C@H]1C(=O)N[C@@H](CO)C(=O)N2 [Example 1] (GLPWGCPSDIPGWNTPWAC-OH; disulfide 6-19; lactam N-9) | stable | stable | stable | stable | 100 | 0.003 | 0.120 | 0.092 | stable | stable | stable | 
CC[C@H](C)[C@@H]1NC(=O)[C@@H]2CC(=O)NCC(=O)N[C@@H](CC(C)C)C(=O)N3CCC[C@H]3C(=O)N[C@@H](Cc3c[nH]c4ccccc34)C(=O)NCC(=O)N[C@@H](CSSC[C@@H](C(=O)OC)NC(=O)[C@H](C)NC(=O)[C@H](Cc3c[nH]c4ccccc34)NC(=O)[C@@H]3CCCN3C(=O)[C@H]([C@@H](C)O)NC(=O)[C@H](CC(N)=O)NC(=O)[C@H](Cc3c[nH]c4ccccc34)NC(=O)CNC(=O)[C@@H]3CCCN3C1=O)C(=O)N1CCC[C@H]1C(=O)N[C@@H](CO)C(=O)N2 [Example 2] (GLPWGCPSDIPGWNTPWAC-OMe; disulfide 6-19; lactam N-9) | stable | stable | stable | stable |  | 0.003 | 0.002 | 0.004 |  |  |  | 135

— EP1525218B1, “BICYCLIC OLIGOPEPTIDES AND THEIR USE AS GLUCAGON RECEPTOR ANTAGONISTS” (Boehringer Ingelheim Pharma GmbH & Co.KG, priority 2002, dated 2004)
